Laboratory results from US9796777B2, “Methods of treating malignant tumors” (Canimguide Therapeutics AB, priority 2007, dated 2017).

Key:
PBMC [1] = experiment: LPS-induced IL-6 production by PBMC, effect of peptides; type: cell-based, human; details: three cancer patients
[2] = system: cell surface receptors of immune cells (ACS); experiment: Adsorption of enzyme fragmented dHSA on affinity column with biotinylated cell surface proteins (ACS), MALDI-TOF ms; type: binding, human
PBMC [3] = experiment: IL-2 induced proliferation of PBMC with albumin peptides in coated and uncoated tissue culture plates; type: cell-based, human
Protocol: A mixture of 1 mg/ml IgG in a solution of 9 mg/ml HSA in RPMI (HSA/IgG) was also prepared. 200 μl of HSA or HSA/IgG were then added to each well of the plate. The plates were incubated at 4° C. for 30 minutes after which the wells were washed twice with 200 μl of RPMI1640. The coated plates were used immediately. […] PBMC, isolated from healthy individuals, were diluted in RPMI/2% HSA and peptides were added directly to the cell suspension at a concentration of 10 μg/ml.

[4] = system: natural killer (NK) cells; experiment: Cytotoxic activity of natural killer (NK) cells against K562 (NKTEST, flow cytometry); type: cell-based, human; details: four healthy donors; peptides 10 ug/ml; effector:target ratio 40:1
Protocol: Mononuclear cells were separated by standard Ficoll-paque Plus (Pharmacia AB, Sweden) density gradient centrifugation from heparinized blood obtained from healthy donors. NK cell cytotoxic activity of the mononuclear cells was then tested using a commercial kit (NKTEST, Orpegen Pharma GmbH, Heidelberg, Germany) following the manufacturers protocol. Briefly, the kit contains cryopreserved, NK-sensitive target cells (K562) labelled with a lipophilic green fluorescent membrane dye, which enables discrimination of effector and target cells. After incubation with effector cells, killed target cells are identified by a DNA-stain, which penetrates and specifically stain the nuclei of dead target cells. This way the percentage of killed targets can be determined by flow cytometry. The mononuclear cells were pre-incubated for 30 min at 37° C. with the indicated peptides (peptides have been described previously) at 10 ug/ml. Target cells were then added, giving an effector:target ratio of 40:1, and the cell mixture incubated at 37° C. for 3-4 hours. Samples were analysed on a FACSCalibur (BD Biosciences, San Jose, Calif.).

With VFDEFKPLVEEPQNLIK [peptide 3028] the “effect on LPS induced IL-6 production” value (PBMC [1]) was “essentially no effects”, the Per cent adsorbed ([2]; Table 5 A, peptides generated by trypsin degradation of dHSA) was 0.60 Per cent and the “Per cent adsorbed” value ([2]; Table 5 B, trypsin peptides selected for synthesis) was 0.60 Per cent. For the same sequence, the “inhibitory effect on IL-2 induced proliferation under modulation of the Fc-receptor cross-linking” value (PBMC [3]; HSA/IgG coated plates) was “completely reversed”, the “effect on IL-2 induced proliferation” value (PBMC [3]; PBMC from healthy individuals, peptide 5 μg/ml final, 7 days) was “highly inhibitory” and the “effect on percent specific lysis of K562 target cells” value [4] was “reduced the percent specific lysis of K562 target cells by all four donors”.
